The target in data set [1] is T1, CYP3A4 in POPC Nanodiscs (Homo sapiens, UniProt P08684, S18F). The data set is described as follows: Product formation. The settings on record: binding intermediate with 1 substrate molecule bound; 37 C, pH 7.4. The class given is biochemical.
The target of data set [2] is CYP3A4 (Homo sapiens, UniProt P08684, S18F). In words: Substrate binding to CYP3A4 in Nanodiscs: UV-Vis spectral titration. The settings on record: human, recombinant CYP3A4 in POPC Nanodiscs.
The target in data set [3] is T1, CYP3A4 in POPC Nanodiscs. The data set is described as above. The following applies: for Fe^3+ Spin shift (fraction of high spin): 37 C.
The target of data set [4] is T1, CYP3A4 in POPC Nanodiscs. In kind it is biochemical. The settings on record: mixture of ARVL and DND at constant molar ratio 2.9:1; one of each substrate bound.

“Also recorded” adds a separate entry of the source.

For orientation: Kd means the concentration at which binding is half-saturated. As to `CC(C)c1c(C(=O)Nc2ccccc2)c(-c2ccccc2)c(-c2ccc(F)cc2)n1CC[C@@H]1C[C@@H](O)CC(=O)O1` [ARVL, atorvastatin lactone], the Product formation rate in data set [1] was 13 [9.6 – 14.7] min^−1. Moreover, the values for the dissociation constant Kd in data set [2] and in data set [3] were 22 µM and 1000 nM, respectively. The “Fe^3+ Spin shift (fraction of high spin)” value in data set [3] (binding intermediate with 1 substrate molecule bound) was 22 [16 – 26] %; in data set [3] (binding intermediate with 2 substrate molecules bound) it was 62 [56 – 72] %. Further, the “Rate of metabolism from the mixed intermediate” value in data set [4] came out at 31 min⁻¹.
For `CCCCc1oc2ccc(NS(C)(=O)=O)cc2c1C(=O)c1ccc(OCCCN(CCCC)CCCC)cc1` [DND, dronedarone], in data set [1], the Product formation rate is 2.5 [1.6 – 3.4] min^−1. The dissociation constant (Kd) in data set [2] came to 3.6 µM. In addition, the “Rate of metabolism from the mixed intermediate” value in data set [4] was “No product of DND metabolism was detected; also recorded: completely inhibited”.
